Our source for the ED50 values is ChEMBL document CHEMBL1124295, “Synthesis and oral antiallergic activity of carboxylic acids derived from imidazo[2,1-c][1,4]benzoxazines, imidazo[1,2-a]quinolines, imidazo[1,2-a]quinoxalines, imidazo[1,2-a]quinoxalinones, pyrrolo[1,2-a]quinoxalinones, pyrrolo[2,3-a]quinoxalinones, and imidazo[2,1-b]benzothiazoles” (1988).

Calls of active or inactive are those of the source. The calls are words filed in the database; no cut-off is given here.

Assay [1] concerns Rattus norvegicus. In words: Inhibition of the IgE-mediated passive cutaneous anaphylaxis (PCA) reaction in rat after oral administration; Range 0.07-22.7. Format: functional.
The test system of assay [2] is Rattus norvegicus. In words: Inhibition of the IgE-mediated passive cutaneous anaphylaxis (PCA) reaction in rat after intravenous administration; Range 0.007-0.049. Format: functional.
The subject of assay [3] is Rattus norvegicus. Put plainly: Inhibition of the IgE-mediated passive cutaneous anaphylaxis (PCA) reaction in rat after oral administration; Range 0.21-7.6. Type of assay: functional.
Assay [4] has as its system Rattus norvegicus. In words: Inhibition of the IgE-mediated passive cutaneous anaphylaxis (PCA) reaction in rat after intravenous administration; Range 1.04-1.42. Type of assay: functional.
Assay [5] has as its system Rattus norvegicus. In words: Inhibition of the IgE-mediated passive cutaneous anaphylaxis (PCA) reaction in rat after oral administration; NA means Inactive. Type of assay: functional, organism-based.
The subject of assay [6] is Rattus norvegicus. Put plainly: Inhibition of the IgE-mediated passive cutaneous anaphylaxis (PCA) reaction in rat after oral administration; Range 0.65-6.05. Type of assay: functional.
Assay [7] has as its system Rattus norvegicus. Put plainly: Inhibition of the IgE-mediated passive cutaneous anaphylaxis (PCA) reaction in rat after intravenous administration; Range 0.047-0.108. Format: functional.
For assay [8], the system named is Rattus norvegicus. Put plainly: Inhibition of the IgE-mediated passive cutaneous anaphylaxis (PCA) reaction in rat after oral administration; NA means inactive. Format: functional, organism-based.
For assay [9], the system named is Rattus norvegicus. In words: Inhibition of the IgE-mediated passive cutaneous anaphylaxis (PCA) reaction in rat after oral administration; NA means inactive at 1 and 10 mg/Kg. Format: functional, organism-based.
Assay [10] deals with Rattus norvegicus. Put plainly: Inhibition of the IgE-mediated passive cutaneous anaphylaxis (PCA) reaction in rat after intravenous administration; Range 0.43-0.74. Type of assay: functional.
The subject of assay [11] is Rattus norvegicus. Put plainly: Inhibition of the IgE-mediated passive cutaneous anaphylaxis (PCA) reaction in rat after intravenous administration; Range 0.39-0.96. Format: functional.
Assay [12] deals with Rattus norvegicus. Put plainly: Inhibition of the IgE-mediated passive cutaneous anaphylaxis (PCA) reaction in rat after intravenous administration; Range 0.014-0.029. Type of assay: functional.
Assay [13] deals with Rattus norvegicus. Put plainly: Inhibition of the IgE-mediated passive cutaneous anaphylaxis (PCA) reaction in rat after oral administration; Range 12.3-33.8. Type of assay: functional.
Assay [14] concerns Rattus norvegicus. Put plainly: Inhibition of the IgE-mediated passive cutaneous anaphylaxis (PCA) reaction in rat after oral administration; Range 0.20-0.83. Type of assay: functional.
For assay [15], the system named is Rattus norvegicus. Put plainly: Inhibition of the IgE-mediated passive cutaneous anaphylaxis (PCA) reaction in rat after intravenous administration; Range 0.20-0.5. Format: functional.
In assay [16] the test system is Rattus norvegicus. In words: Inhibition of the IgE-mediated passive cutaneous anaphylaxis (PCA) reaction in rat after oral administration; Range 0.37-0.65. Format: functional.
The subject of assay [17] is Rattus norvegicus. Put plainly: Inhibition of the IgE-mediated passive cutaneous anaphylaxis (PCA) reaction in rat after oral administration; Range 1.88-2.85. Format: functional.
Assay [18] has as its system Rattus norvegicus. Put plainly: Inhibition of the IgE-mediated passive cutaneous anaphylaxis (PCA) reaction in rat after oral administration; Range 2.71-7.46. Format: functional.
Assay [19] deals with Rattus norvegicus. Put plainly: Inhibition of the IgE-mediated passive cutaneous anaphylaxis (PCA) reaction in rat after intravenous administration; Range 1.73-30.03. Format: functional.
Assay [20] has as its system Rattus norvegicus. Put plainly: Inhibition of the IgE-mediated passive cutaneous anaphylaxis (PCA) reaction in rat after intravenous administration; Range 0.025-0.11. Format: functional.
In assay [21] the test system is Rattus norvegicus. In words: Inhibition of the IgE-mediated passive cutaneous anaphylaxis (PCA) reaction in rat after oral administration; Range 0.51-7.81. Type of assay: functional.
Assay [22] has as its system Rattus norvegicus. In words: Inhibition of the IgE-mediated passive cutaneous anaphylaxis (PCA) reaction in rat after intravenous administration; Range 0.104. Format: functional.
Assay [23] has as its system Rattus norvegicus. In words: Inhibition of the IgE-mediated passive cutaneous anaphylaxis (PCA) reaction in rat after oral administration; Inactive at 20 mg/kg. Format: functional, organism-based. On the set-up: dose 20 mg/kg.
The test system of assay [24] is Rattus norvegicus. Put plainly: Inhibition of the IgE-mediated passive cutaneous anaphylaxis (PCA) reaction in rat after oral administration; Range 0.031-0.15. Format: functional.
Assay [25] relates to Rattus norvegicus. In words: Inhibition of the IgE-mediated passive cutaneous anaphylaxis (PCA) reaction in rat after intravenous administration; Range 0.052-0.43. Format: functional.
Assay [26] concerns Rattus norvegicus. Put plainly: Inhibition of the IgE-mediated passive cutaneous anaphylaxis (PCA) reaction in rat after intravenous administration; Range 0.06-0.22. Type of assay: functional.
Assay [27] relates to Rattus norvegicus. Put plainly: Inhibition of the IgE-mediated passive cutaneous anaphylaxis (PCA) reaction in rat after intravenous administration; Range 2.22-3.63. Format: functional.
Assay [28] has as its system Rattus norvegicus. In words: Inhibition of the IgE-mediated passive cutaneous anaphylaxis (PCA) reaction in rat after oral administration; Range 2.47-3.45. Format: functional.
In assay [29] the test system is Rattus norvegicus. In words: Inhibition of the IgE-mediated passive cutaneous anaphylaxis (PCA) reaction in rat after oral administration; Range 0.182-1.56. Type of assay: functional.
Assay [30] has as its system Rattus norvegicus. In words: Inhibition of the IgE-mediated passive cutaneous anaphylaxis (PCA) reaction in rat after oral administration; Range 0.29-6.49. Type of assay: functional.
Assay [31] has as its system Rattus norvegicus. Put plainly: Inhibition of the IgE-mediated passive cutaneous anaphylaxis (PCA) reaction in rat after intravenous administration; Range 0.31-0.45. Type of assay: functional.

Usually ED50 stands for the dose that gives a 50% effect, or the effect in half of the subjects.

As for `Clc1ccc2c(Cl)cc3nc(-c4nn[nH]n4)cn3c2c1`, the results for the ED50 in assay [1] and in assay [2] were 0.5 mg/kg and 0.016 mg/kg, respectively.
In turn, `O=Cc1cn2c(cc(Cl)c3ccc(Cl)cc32)n1` had an ED50 in [3] of 0.5 mg/kg.
Consider `O=C([O-])c1cc(=O)c2c(OCC(O)COc3cccc4oc(C(=O)[O-])cc(=O)c34)cccc2o1.[Na+].[Na+]` [CROMOLYN SODIUM], for which the ED50 in [4] was 1.21 mg/kg. Besides, in [5], the ED50 result was “inactive”.
Consider `CC1(C)OCC(COC(=O)c2cn3c(ccc4ccccc43)n2)O1` (stereo unspecified), for which it took a dose of 1.7 mg/kg to reach the 50% effect level in assay [6] (ED50).
Take `CC(=O)Nc1ccc2c(c1)-n1cc(C(=O)O)nc1CO2`: the ED50 in [7] was found to be 0.073 mg/kg. For the same molecule, the ED50 entry in assay [8] was “inactive”.
Regarding `Nc1nnnn1C(=O)c1cn2c(n1)COc1ccccc1-2`, the ED50 result in assay [9] was “inactive”. The same molecule displayed an ED50 in assay [10] of 0.58 mg/kg.
Molecule `COc1ccc2c(c1)sc1nc(C(=O)O)cn12` came in with an ED50 in [11] of 0.62 mg/kg.
In assay [12], `CCCn1c(=O)c2cc(C(=O)O)nn2c2ccccc21` had a 50% effective dose (ED50) of 0.023 mg/kg.
In assay [13], `O=C(O)c1cc2c(=O)n(-c3ccccc3)c3ccccc3n2c1` gave an ED50 of 18.9 mg/kg.
`O=C(Nc1nn[nH]n1)c1cn2c(ccc3ccccc32)n1`: the results for the ED50 in assay [14] and in assay [15] were 0.54 mg/kg and 0.31 mg/kg, respectively.
With `CCOC(=O)C(=O)Nc1ccc2c(c1)-n1cc(C(=O)OC)nc1CO2`, the ED50 in [16] is 0.5 mg/kg.
In the case of `CCn1c(=O)c2cc(C=O)cn2c2ccccc21`, the ED50 in assay [17] amounted to 2.53 mg/kg.
Regarding `O=Cc1cn2c(n1)COc1ccccc1-2`, the ED50 in [18] is 4.27 mg/kg; in assay [19], 4.79 mg/kg.
Take `CS(=O)(=O)c1cc2nc(C(=O)O)cn2c2ccccc12`: the figures for the median effective dose (ED50) in [20] and in [21] were 0.047 mg/kg and 1.64 mg/kg, respectively.
Regarding `O=C(O)c1ncn2c1c(O)nc1ccccc12`, in assay [22], the 50% effect level (ED50) was put at a dose of 0.104 mg/kg. For the same molecule, the ED50 result in assay [23] was “inactive”.
Consider `O=Cc1cn2c(cnc3ccccc32)n1`, for which the ED50 was determined as 0.073 mg/kg in assay [24] and 0.137 mg/kg in assay [25].
`CCn1c(=O)c2cc(C(=O)O)nn2c2ccccc21` returned an ED50 in assay [26] of 0.11 mg/kg.
Regarding `O=C(O)c1cn2c(n1)COc1ccccc1-2`, the ED50 in [27] came out at 2.89 mg/kg; in assay [28], 3.2 mg/kg.
In assay [29], `CCn1c(=O)c2cc(-c3nn[nH]n3)cn2c2ccccc21` yielded an ED50 of 0.44 mg/kg.
With `OCc1cn2c(n1)COc1ccccc1-2`, it took a dose of 2.73 mg/kg to reach the 50% effect level in assay [30] (ED50).
In turn, `Cc1nc(C(=O)O)c2c(O)nc3ccccc3n12` gave an ED50 in assay [31] of 0.37 mg/kg.
